This note sets out measurements from patent US20240400577A1, “MODULATORS OF PROTEIN KINASES” (VIBLIOME THERAPEUTICS, LLC, priority 2021, published 2024).

Experiment in all cases: Kinase panel enzymatic inhibition assay (Nanosyn)
What all share (type): biochemical
Holding throughout (conditions): compound 5 μM; ATP at Km; 30-minute pre-incubation

For assay [1], the target named is T1, LYNb (Homo sapiens, UniProt P07948).
T1 construct: purchased Nanosyn (contract screening)
In outline:
(§1)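 Inhibition is expressed as percent at 5 μM or as IC50, with ATP set at the Km of each kinase and a 30-minute compound pre-incubation. Detection used an accepted enzymatic format such as Caliper mobility shift.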

Assay [2] relates to EPH. In outline: as §1
The target in assay [3] is T2, DDR1 (Homo sapiens, UniProt Q08345).
T2 construct: purchased Nanosyn (contract screening)
An outline of the steps:
as §1

In assay [4] the target is T3, MAP4K2 (Homo sapiens, UniProt Q12851).
T3 construct: purchased Nanosyn (contract screening)
T3 sequence (Q12851 1-820): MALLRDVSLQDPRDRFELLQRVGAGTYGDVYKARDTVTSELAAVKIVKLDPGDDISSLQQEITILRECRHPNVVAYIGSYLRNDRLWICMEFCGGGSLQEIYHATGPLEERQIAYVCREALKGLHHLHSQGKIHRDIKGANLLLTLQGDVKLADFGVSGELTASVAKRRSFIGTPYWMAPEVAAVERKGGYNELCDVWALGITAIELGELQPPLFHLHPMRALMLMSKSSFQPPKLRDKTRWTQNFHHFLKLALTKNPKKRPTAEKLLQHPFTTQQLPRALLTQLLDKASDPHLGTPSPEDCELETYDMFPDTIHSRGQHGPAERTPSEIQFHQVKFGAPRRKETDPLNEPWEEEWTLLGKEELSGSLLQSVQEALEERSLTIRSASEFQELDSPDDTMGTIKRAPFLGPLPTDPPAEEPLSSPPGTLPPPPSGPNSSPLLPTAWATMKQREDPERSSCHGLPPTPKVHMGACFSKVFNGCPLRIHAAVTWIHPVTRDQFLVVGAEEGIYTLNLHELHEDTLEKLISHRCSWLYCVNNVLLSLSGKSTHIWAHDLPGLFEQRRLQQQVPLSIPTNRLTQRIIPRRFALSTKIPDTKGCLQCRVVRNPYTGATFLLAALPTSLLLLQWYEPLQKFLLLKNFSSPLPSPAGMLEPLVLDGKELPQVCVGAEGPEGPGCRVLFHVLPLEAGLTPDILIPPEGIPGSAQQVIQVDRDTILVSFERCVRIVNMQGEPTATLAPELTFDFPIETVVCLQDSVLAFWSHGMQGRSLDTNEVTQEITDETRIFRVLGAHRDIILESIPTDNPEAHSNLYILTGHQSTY
An outline of the steps: as §1

Assay [5] concerns the target T4, PDGFRb (Homo sapiens, UniProt P09619).
T4 construct: Nanosyn (contract laboratory that ran the panel)
An outline of the steps:
as §1

Assay [6] has as its target T5, ERBB4 (Homo sapiens, UniProt Q15303).
T5 construct: purchased Nanosyn (contract screening)
In outline: as §1

Assay [7] concerns the target T6, TAOK2 (Homo sapiens, UniProt Q9UL54).
T6 construct: Nanosyn (contract laboratory that ran the panel)
T6 sequence (Q9UL54 1-1235): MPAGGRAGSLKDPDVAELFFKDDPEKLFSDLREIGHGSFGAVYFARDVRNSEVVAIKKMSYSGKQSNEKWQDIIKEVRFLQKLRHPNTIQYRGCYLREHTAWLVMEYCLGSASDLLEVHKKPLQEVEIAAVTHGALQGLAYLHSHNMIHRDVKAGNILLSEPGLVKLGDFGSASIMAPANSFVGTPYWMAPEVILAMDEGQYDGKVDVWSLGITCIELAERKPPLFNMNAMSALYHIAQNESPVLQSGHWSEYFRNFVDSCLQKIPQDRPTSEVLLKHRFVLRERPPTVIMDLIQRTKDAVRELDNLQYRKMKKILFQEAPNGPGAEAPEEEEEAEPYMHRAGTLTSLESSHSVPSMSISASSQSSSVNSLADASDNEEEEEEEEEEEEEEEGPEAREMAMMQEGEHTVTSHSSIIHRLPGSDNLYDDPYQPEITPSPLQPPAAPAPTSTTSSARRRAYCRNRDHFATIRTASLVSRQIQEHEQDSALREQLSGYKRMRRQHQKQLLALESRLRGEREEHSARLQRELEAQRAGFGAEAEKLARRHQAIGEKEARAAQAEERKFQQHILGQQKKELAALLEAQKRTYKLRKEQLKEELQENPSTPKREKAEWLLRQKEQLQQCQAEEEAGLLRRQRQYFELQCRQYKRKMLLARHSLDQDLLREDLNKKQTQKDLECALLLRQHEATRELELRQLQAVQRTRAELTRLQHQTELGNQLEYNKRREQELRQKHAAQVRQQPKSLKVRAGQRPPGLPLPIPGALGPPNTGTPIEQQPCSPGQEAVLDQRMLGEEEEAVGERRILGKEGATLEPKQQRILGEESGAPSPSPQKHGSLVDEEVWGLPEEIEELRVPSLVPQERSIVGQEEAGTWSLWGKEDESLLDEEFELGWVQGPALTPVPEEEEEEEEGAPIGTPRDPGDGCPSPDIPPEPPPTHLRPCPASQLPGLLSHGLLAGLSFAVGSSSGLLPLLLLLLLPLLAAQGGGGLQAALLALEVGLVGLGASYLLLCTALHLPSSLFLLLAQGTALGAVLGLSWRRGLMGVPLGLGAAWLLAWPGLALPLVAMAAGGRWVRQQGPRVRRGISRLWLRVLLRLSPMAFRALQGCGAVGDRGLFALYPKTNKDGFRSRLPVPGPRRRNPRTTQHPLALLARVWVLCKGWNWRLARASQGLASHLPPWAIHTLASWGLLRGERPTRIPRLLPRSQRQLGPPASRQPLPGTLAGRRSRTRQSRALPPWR
An outline of the steps: as §1

Assay [8] has as its target T7, MNK2 (Homo sapiens, UniProt Q9HBH9).
T7 construct: Nanosyn (contract laboratory that ran the panel)
In outline: as §1

Assay [9] deals with T8, CRAF (Homo sapiens, UniProt P04049).
T8 construct: purchased Nanosyn (contract screening)
In outline: as §1

T7 sequence (Q9HBH9 whole entry): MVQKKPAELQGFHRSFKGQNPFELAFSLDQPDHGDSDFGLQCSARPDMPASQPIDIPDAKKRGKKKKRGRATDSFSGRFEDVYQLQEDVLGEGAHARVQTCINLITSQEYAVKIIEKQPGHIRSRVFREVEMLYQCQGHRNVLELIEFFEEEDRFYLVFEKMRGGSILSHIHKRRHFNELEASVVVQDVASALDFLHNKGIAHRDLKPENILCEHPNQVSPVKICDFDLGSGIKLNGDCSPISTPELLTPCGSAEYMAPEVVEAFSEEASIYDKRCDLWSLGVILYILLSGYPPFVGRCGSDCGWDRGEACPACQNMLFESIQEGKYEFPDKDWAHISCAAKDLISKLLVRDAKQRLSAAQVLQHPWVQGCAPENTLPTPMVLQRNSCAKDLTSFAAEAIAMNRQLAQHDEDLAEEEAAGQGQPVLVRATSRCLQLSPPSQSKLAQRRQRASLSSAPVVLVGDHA
T2 sequence (Q08345 19-913): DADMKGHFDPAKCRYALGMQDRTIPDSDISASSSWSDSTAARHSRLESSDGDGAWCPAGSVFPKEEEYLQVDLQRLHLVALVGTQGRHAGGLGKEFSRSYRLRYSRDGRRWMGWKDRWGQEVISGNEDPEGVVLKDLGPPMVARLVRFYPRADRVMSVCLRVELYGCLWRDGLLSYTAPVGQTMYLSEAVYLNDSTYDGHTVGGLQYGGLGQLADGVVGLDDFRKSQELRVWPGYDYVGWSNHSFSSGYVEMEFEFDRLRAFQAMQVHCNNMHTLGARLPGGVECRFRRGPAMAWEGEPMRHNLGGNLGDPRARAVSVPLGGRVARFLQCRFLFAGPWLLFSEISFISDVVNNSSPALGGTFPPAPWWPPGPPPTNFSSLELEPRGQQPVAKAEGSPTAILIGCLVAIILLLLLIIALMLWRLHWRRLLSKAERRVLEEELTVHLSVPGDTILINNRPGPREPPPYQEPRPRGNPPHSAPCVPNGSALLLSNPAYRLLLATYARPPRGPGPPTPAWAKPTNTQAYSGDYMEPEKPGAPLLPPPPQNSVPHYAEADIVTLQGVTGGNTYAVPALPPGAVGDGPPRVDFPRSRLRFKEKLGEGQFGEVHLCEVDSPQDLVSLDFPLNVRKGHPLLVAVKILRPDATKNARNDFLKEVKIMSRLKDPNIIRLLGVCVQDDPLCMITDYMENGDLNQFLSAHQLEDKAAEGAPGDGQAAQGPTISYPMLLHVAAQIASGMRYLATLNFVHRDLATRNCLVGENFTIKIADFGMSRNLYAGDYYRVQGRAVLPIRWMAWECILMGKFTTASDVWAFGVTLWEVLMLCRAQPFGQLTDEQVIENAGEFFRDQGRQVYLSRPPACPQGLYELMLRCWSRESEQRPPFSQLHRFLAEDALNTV
T1 sequence (P07948 1-491 isoform P07948-2): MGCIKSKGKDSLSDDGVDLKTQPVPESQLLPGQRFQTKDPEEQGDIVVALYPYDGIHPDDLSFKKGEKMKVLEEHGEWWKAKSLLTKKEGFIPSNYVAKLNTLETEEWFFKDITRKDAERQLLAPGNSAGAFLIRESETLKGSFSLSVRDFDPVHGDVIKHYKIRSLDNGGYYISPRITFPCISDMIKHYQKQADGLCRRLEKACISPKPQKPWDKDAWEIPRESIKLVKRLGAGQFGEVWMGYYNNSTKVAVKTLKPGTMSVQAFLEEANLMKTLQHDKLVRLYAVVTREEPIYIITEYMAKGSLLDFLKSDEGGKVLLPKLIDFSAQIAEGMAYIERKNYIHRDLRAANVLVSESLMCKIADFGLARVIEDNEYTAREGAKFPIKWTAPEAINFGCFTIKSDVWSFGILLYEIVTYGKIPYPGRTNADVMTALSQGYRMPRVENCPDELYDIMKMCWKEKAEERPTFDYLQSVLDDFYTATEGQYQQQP
T4 sequence (P09619 33-1106): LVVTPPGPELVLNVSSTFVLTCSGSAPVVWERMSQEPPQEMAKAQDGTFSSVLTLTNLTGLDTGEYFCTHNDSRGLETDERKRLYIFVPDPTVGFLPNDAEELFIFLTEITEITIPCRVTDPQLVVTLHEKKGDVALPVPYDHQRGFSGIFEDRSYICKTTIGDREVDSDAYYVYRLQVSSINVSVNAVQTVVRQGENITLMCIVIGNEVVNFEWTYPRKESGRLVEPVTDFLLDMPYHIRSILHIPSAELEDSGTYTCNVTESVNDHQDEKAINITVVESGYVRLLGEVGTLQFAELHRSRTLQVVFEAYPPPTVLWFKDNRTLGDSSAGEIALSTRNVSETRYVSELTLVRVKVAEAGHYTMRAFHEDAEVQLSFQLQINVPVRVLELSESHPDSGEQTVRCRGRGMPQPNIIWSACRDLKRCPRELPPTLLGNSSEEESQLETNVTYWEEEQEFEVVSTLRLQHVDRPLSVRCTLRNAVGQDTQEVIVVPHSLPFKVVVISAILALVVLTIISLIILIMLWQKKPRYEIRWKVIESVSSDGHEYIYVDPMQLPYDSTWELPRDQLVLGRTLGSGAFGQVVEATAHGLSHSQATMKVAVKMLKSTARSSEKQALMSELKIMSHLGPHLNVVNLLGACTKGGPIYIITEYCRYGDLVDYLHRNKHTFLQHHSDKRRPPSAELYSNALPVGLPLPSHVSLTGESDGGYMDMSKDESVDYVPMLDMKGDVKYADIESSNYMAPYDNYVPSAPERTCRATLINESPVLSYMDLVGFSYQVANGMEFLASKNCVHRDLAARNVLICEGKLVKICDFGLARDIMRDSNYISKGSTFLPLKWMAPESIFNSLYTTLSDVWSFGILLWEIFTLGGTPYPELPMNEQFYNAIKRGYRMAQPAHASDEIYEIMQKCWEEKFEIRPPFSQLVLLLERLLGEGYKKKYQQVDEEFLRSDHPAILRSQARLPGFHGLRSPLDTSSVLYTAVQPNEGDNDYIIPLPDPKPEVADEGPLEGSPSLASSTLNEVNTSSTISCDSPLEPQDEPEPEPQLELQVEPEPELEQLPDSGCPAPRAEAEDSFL
T5 sequence (Q15303 26-1308): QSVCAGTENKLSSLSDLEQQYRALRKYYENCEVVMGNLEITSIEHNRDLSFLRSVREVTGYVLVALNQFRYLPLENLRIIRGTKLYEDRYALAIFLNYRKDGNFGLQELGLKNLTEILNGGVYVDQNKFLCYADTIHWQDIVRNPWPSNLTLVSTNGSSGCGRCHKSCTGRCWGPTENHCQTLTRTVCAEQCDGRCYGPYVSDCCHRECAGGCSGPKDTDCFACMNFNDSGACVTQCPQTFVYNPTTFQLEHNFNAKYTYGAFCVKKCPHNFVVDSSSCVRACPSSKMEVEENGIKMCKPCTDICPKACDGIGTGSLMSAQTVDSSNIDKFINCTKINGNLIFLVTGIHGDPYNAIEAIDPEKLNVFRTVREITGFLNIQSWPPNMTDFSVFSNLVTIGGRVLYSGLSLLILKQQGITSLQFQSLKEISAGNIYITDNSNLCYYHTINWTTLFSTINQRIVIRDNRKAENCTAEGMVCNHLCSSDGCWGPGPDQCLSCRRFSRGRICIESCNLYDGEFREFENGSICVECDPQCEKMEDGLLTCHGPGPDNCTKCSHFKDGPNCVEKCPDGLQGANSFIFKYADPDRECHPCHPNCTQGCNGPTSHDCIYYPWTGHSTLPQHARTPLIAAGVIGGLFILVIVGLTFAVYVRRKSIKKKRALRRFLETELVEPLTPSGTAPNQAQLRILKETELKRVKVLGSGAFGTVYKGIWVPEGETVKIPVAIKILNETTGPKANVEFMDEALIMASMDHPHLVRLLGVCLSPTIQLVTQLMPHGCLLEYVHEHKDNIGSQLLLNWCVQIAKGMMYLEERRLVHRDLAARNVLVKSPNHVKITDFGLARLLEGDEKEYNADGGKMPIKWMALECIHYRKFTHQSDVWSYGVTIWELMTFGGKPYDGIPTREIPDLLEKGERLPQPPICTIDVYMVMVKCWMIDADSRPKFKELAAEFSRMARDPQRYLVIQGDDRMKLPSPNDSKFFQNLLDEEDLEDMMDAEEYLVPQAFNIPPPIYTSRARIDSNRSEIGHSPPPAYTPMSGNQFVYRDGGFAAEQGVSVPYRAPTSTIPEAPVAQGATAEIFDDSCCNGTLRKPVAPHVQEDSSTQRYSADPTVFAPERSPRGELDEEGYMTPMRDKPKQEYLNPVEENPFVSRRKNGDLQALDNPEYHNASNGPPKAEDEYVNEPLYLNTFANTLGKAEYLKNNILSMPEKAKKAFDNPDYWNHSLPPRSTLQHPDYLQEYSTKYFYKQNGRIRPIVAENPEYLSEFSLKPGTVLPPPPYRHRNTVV
T8 sequence (P04049 whole entry): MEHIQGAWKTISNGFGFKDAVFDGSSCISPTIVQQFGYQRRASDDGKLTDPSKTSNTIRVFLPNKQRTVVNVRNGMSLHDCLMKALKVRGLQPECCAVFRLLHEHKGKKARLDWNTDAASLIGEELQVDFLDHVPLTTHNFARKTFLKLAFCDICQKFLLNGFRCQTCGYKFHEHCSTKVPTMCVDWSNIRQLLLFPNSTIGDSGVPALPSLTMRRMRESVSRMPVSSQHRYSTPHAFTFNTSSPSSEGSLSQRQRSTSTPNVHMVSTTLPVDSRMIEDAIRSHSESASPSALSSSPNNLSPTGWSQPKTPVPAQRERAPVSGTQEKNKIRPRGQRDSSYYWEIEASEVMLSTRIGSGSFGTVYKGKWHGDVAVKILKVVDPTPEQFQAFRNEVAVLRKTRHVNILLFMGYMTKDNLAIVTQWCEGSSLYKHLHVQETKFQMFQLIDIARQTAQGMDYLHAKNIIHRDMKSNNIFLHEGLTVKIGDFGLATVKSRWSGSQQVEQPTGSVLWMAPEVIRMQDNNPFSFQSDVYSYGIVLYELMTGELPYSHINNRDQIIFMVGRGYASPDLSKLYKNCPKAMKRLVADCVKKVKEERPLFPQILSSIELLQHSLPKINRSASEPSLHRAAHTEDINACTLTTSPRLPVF

`CCOC(=O)Nc1cn2nc(Nc3cc(NC(=O)c4cc([S+](C)[O-])n(-c5ccc(F)cc5)n4)ccc3C)ccc2n1` (stereo not drawn) [Ex18, ethyl (6-((5-(1-(4-fluorophenyl)-5-(methylsulfinyl)-1H-pyrazole-3-carboxamido)-2-methylphenyl)amino)imidazo[1,2-b]pyridazin-2-yl)carbamate]: the inhibition at 5 µM in assay [1] was less than 79%; in assay [3], not below 95%; in [4], less than 79%; in assay [5], 90 to 94%; in assay [6], less than 79%; in assay [7], less than 79%. The inhibition at 5 µM is less than 79% in assay [8] and not below 95% in [9]. Further, the “kinase inhibition, EPH” value in assay [2] is “D (D=79% and less)”.

Regarding `Cc1ccc(NC(=O)c2cc([S+](C)[O-])n(-c3ccc(F)cc3)n2)cc1C#Cc1cnc2cccnn12` (stereo not drawn) [Ex6, 1-(4-fluorophenyl)-N-(3-(imidazo[1,2-b]pyridazin-3-ylethynyl)-4-methylphenyl)-5-(methylsulfinyl)-1H-pyrazole-3-carboxamide], the inhibition at 5 µM in assay [1] is not below 95%; in assay [3] it was not below 95%; in assay [4], less than 79%; in assay [5], not below 95%; in assay [6] it was less than 79%; in [7], less than 79%. Besides, the inhibition at 5 µM is less than 79% in assay [8] and not below 95% in assay [9]. The “kinase inhibition, EPH” value in assay [2] is “D (D=79% and less)”.

Broadly, the inhibition is the drop in the measured response relative to a control, in per cent.
